Key:
LRRK2 [1] = biological target: LRRK2 (Mus musculus, UniProt Q5S006); assay: In vivo blocking study: [^3H]LRRK2-IN-1 co-administered with Pf-06447475 in mice; conditions: for % blocking (max.) of [^3H]LRRK2-IN-1 uptake: 10 mg/kg Pf-06447475, 10 mg/kg
LRRK2 kinase = LRRK2 kinase inhibitor; cited from earlier work
LRRK2 [2] = biological target: LRRK2 (Rattus norvegicus, UniProt F1LNJ1); conditions: IC50 for displacement of [^3H]LRRK2-IN-1 binding, rat kidney; 10 nM radioligand
LRRK2 [3] = biological target: LRRK2 (Homo sapiens, UniProt Q5S007); type: binding
WT (wild-type) LRRK2 = conditions: cited from earlier work
mutant G2019S type LRRK2 = conditions: cited from earlier work

Sequence of LRRK2 (Mus musculus, UniProt Q5S006) (Q5S006 whole entry): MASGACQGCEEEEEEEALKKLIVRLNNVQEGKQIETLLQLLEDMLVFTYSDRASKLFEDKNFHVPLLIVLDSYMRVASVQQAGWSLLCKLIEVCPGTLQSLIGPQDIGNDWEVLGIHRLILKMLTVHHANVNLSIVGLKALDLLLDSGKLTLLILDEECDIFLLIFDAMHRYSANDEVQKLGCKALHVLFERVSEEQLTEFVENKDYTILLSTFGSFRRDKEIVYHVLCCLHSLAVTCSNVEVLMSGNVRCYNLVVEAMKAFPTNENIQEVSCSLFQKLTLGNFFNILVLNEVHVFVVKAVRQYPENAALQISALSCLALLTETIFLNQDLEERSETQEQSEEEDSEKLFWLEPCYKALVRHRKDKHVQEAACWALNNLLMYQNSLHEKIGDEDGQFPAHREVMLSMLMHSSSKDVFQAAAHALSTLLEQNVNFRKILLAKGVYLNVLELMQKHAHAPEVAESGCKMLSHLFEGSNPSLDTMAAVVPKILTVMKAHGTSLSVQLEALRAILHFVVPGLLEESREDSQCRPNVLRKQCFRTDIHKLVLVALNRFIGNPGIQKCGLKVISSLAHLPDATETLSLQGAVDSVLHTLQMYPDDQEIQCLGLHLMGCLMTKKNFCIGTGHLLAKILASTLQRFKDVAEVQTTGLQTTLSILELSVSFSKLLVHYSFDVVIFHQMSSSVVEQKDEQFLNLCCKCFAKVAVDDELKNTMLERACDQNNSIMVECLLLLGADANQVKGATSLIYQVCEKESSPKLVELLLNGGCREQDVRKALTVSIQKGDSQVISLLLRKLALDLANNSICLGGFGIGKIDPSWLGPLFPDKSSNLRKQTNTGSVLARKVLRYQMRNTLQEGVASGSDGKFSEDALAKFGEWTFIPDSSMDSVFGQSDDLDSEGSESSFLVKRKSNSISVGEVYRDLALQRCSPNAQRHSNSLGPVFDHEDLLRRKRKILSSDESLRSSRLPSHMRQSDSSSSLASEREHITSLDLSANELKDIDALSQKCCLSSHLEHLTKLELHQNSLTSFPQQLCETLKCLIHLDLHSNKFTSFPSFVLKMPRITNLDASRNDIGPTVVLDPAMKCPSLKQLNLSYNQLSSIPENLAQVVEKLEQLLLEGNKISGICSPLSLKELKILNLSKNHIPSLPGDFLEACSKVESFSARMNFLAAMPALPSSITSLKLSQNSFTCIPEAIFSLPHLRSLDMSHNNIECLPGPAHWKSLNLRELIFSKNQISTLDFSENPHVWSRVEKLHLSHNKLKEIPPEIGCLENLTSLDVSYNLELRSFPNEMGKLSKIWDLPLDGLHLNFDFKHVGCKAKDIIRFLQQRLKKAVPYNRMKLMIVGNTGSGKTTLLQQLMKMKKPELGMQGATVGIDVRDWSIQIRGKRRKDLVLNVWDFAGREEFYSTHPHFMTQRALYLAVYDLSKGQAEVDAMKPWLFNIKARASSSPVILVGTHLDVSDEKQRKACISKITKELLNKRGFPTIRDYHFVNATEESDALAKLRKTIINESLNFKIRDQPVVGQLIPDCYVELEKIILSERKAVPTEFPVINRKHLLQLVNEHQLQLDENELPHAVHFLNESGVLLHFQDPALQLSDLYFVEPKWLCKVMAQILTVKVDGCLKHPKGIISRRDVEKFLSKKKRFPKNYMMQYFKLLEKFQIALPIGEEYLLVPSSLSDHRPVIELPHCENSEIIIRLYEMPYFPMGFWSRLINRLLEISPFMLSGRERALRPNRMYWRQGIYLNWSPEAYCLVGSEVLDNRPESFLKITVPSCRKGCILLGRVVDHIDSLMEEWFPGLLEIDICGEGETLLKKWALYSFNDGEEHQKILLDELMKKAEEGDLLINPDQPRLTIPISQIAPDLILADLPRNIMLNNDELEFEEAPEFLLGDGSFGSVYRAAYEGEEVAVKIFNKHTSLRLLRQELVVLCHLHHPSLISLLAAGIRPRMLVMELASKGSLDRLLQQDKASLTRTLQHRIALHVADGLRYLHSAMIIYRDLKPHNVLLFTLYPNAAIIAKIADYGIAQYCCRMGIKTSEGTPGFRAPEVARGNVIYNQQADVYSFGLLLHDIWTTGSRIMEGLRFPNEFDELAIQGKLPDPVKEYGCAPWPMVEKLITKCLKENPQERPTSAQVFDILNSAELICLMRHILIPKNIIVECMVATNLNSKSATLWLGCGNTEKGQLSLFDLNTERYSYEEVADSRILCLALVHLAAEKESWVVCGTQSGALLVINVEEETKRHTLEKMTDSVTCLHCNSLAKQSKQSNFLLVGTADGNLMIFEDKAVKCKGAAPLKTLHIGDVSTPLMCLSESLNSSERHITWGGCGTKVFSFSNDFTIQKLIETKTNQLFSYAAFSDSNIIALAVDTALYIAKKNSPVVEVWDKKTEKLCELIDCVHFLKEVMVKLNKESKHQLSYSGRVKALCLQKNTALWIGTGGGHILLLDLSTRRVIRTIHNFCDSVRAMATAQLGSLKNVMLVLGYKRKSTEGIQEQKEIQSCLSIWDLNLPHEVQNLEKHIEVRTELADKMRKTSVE
Sequence of LRRK2 (Rattus norvegicus, UniProt F1LNJ1) (F1LNJ1 1-2526): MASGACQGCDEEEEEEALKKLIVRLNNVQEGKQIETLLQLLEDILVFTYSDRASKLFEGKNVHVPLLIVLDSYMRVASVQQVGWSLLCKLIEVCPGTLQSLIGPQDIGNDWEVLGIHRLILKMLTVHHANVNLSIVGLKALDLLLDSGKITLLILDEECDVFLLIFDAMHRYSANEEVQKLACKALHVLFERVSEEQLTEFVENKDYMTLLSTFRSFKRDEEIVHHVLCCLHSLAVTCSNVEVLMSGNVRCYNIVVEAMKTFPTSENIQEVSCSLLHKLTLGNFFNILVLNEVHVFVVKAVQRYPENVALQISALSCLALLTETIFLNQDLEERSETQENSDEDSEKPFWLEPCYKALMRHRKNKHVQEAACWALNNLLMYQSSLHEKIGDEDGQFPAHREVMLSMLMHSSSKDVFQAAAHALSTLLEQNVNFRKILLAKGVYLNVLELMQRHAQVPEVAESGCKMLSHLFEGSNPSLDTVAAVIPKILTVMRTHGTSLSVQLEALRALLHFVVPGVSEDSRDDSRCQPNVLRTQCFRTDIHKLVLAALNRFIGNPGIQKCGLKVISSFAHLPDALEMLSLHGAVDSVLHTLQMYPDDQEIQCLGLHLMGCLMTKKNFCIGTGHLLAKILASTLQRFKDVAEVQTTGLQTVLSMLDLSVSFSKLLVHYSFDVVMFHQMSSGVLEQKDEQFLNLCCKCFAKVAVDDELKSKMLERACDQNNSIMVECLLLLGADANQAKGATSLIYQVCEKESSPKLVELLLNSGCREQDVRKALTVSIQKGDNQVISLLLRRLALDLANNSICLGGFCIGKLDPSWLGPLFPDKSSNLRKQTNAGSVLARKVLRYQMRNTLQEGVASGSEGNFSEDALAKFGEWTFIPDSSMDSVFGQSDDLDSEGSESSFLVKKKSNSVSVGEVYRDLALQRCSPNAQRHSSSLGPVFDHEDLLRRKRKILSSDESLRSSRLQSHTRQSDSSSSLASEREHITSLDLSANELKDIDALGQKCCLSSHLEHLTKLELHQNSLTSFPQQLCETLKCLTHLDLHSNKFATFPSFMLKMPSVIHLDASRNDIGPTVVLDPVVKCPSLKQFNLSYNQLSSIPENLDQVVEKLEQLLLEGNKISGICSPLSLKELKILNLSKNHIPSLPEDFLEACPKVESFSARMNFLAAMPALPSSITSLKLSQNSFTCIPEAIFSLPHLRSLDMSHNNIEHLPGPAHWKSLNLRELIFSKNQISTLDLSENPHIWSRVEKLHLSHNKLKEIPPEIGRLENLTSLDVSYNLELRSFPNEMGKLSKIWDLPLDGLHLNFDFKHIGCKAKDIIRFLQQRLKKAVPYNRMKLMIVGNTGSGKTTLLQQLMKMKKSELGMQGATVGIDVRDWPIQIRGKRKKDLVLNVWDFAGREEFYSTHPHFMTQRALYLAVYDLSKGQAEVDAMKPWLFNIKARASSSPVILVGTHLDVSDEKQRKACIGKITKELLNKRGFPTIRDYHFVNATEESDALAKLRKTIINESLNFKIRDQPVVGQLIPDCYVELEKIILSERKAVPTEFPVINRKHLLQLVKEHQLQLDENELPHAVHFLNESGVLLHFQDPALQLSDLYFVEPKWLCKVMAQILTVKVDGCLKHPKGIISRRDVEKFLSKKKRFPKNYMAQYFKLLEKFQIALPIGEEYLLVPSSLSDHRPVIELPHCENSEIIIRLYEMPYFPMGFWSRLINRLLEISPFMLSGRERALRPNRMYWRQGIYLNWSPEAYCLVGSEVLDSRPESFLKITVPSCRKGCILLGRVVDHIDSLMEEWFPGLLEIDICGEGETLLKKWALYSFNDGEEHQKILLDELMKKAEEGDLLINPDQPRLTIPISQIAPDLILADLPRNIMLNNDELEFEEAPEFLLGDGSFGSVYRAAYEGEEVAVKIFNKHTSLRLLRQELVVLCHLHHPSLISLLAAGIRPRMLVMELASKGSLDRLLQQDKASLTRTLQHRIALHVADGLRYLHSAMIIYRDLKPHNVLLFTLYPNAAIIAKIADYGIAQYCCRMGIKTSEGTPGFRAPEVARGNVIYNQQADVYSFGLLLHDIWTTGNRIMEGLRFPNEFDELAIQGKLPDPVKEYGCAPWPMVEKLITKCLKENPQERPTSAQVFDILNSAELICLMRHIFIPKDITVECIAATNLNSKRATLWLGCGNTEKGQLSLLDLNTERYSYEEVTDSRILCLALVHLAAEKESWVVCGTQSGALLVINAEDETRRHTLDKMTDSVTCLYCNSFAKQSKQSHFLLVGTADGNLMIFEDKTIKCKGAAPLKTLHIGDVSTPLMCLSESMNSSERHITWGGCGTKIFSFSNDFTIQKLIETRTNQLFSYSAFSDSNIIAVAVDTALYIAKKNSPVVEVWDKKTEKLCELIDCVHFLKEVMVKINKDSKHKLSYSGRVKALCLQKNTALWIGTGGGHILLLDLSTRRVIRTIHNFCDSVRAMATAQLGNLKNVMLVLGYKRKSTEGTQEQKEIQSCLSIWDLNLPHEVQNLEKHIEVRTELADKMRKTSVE

| Compound | % blocking (max.) of [^3H]LRRK2-IN-1 uptake (LRRK2 [1]; brain) | Reduction of [^3H]LRRK2-IN-1 uptake (LRRK2 [1]; heart, 10 mg/kg Pf-06447475) | Reduction of [^3H]LRRK2-IN-1 uptake (%ID/g) (LRRK2 [1]; in the kidney or brain, 10 mg/kg Pf-06447475) | % blocking (max.) of [^3H]LRRK2-IN-1 uptake (LRRK2 [1]; kidney) | Reduction of [^3H]LRRK2-IN-1 uptake (LRRK2 [1]; liver, 10 mg/kg Pf-06447475) | Reduction of [^3H]LRRK2-IN-1 uptake (LRRK2 [1]; lung, 10 mg/kg Pf-06447475) | Reduction of [^3H]LRRK2-IN-1 uptake (LRRK2 [1]; muscle, 10 mg/kg Pf-06447475) | Reduction of [^3H]LRRK2-IN-1 uptake (LRRK2 [1]; spleen, 10 mg/kg Pf-06447475) | IC50 (LRRK2 kinase) | IC50 (LRRK2 [2]) | IC50 (LRRK2 [3]) | IC50 (WT (wild-type) LRRK2) | IC50 (mutant G2019S type LRRK2) |
| --- | --- | --- | --- | --- | --- | --- | --- | --- | --- | --- | --- | --- | --- |
| N#Cc1cccc(-c2c[nH]c3ncnc(N4CCOCC4)c23)c1 [Pf-06447475, 3-[4-(morpholin-4-yl)-7H-pyrrolo[2,3-d]pyrimidin-5-yl] benzonitrile] | 62% | 72% | 50–60% | 54% | 34% | 78% | 62% | 40% | 3 nM |  |  |  |  |
| COc1cc(C(=O)N2CCC(N3CCN(C)CC3)CC2)ccc1Nc1ncc2c(n1)N(C)c1ccccc1C(=O)N2C [LRRK2-IN-1] |  |  |  |  |  |  |  |  |  | 40 ± 4 nM | 73 ± 6 nM | 13 nM | 6 nM |
